# From patent US20220402935A1, “HETEROCYCLIC COMPOUND” (FIMECS, INC., priority 2019, published 2022)
# pIC50: −log10 of the molar value. Structures can show the parent of a compound that is named as a salt.
# Target: T1, IRAK-M (Homo sapiens, UniProt Q9Y616)
# T1 sequence (Q9Y616 1-596): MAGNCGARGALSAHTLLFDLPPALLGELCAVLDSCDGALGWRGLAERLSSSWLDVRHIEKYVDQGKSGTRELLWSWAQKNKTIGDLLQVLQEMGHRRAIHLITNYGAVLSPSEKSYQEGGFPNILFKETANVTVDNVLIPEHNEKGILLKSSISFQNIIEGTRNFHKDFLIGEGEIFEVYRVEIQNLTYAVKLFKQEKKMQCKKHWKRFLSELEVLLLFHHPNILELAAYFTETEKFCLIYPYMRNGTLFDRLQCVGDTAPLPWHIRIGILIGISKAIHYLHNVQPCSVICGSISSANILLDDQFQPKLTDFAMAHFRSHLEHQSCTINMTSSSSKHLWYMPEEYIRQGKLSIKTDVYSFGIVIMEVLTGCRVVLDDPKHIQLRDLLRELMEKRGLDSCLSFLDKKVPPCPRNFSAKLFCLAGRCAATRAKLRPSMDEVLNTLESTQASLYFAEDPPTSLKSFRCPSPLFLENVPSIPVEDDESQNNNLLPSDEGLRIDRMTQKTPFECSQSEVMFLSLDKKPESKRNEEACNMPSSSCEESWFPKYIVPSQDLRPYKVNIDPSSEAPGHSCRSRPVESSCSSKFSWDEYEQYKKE
# Experiment: IRAK-M binding inhibitory activity (KINOMEscan active site-dependent competitive assay)
# Set-up: purchased Eurofins Discover X
# Details: concentration of the test compound 1 μM; first symbol of cell; read-out: IRAK-M binding inhibition activity % Ctrl
# Description: IRAK-M binding inhibitory activity was evaluated using active site-dependent competitive assay KINOMEscan® provided by Eurofins Discover X (Goldstein, D. M. et al. High-throughput kinase profiling as a platform for drug discovery. Nat. Rev. Drug Discovery. 7, 391-397 (2008)). IRAK-M binding inhibitory activity of the test compound was evaluated. […] The “% Ctrl” is calculated by the following formula.
# (test compound signal−positive control compound signal)/(negative control compound signal−positive control compound signal)×100
# Negative control compound=DMSO (100 Ctrl)
# Positive control compound=control compound (0%×Ctrl)
row,Structure (SMILES),remaining binding at 1 µM [%]
1,"Oc1cc(CN2CCC(Oc3ccnc4ccsc34)CC2)on1 [Ref. example 4, 5-((4-(thieno[3,2-b]pyridin-7-yloxy)piperidin-1-yl)methyl)isoxazol-3-ol]",50 to 75
2,"NC(=O)c1ccc(Nc2ncnc3ccsc23)c(OC2CCOC2)c1 (stereo not drawn) [Ref. example 11, 3-((tetrahydrofuran-3-yl)oxy)-4-(thieno[3,2-d]pyrimidin-4-ylamino)benzamide]",50 to 75
3,"COC(=O)c1cc2ncnc(NCC3CC3)c2s1 [Ref. example 30, methyl 4-((cyclopropylmethyl)amino)thieno[3,2-d]pyrimidine-6-carboxylate]",≥ 75
4,"O=S(=O)(C1CC1)N1CCC(Oc2ncnc3ccsc23)CC1 [Ref. example 44, 4-((1-(cyclopropylsulfonyl)piperidin-4-yl)oxy)thieno[3,2-d]pyrimidine]",25 to 50
5,"Cc1ncc(CN2CCC(Oc3ccnc4ccsc34)CC2)s1 [Ref. example 80, 7-((1-((2-methylthiazol-5-yl)methyl)piperidin-4-yl)oxy)thieno[3,2-b]pyridine]",25 to 50
6,"O=S(=O)(c1cnn(Cc2ccccc2)c1)N1CCC(Oc2ncnc3ccsc23)CC1 [Ref. example 59, 4-((1-((1-benzyl-1H-pyrazol-4-yl)sulfonyl)piperidin-4-yl)oxy)thieno[3,2-d]pyrimidine]",25 to 50
7,"Cc1c(CN2CCC(Oc3ccnc4ccsc34)CC2)cnn1C [Ref. example 76, 7-((1-((1,5-dimethyl-1H-pyrazol-4-yl)methyl)piperidin-4-yl)oxy)thieno[3,2-b]pyridine]",50 to 75
8,"c1cc(OC2CCN(Cc3cc(OC[C@@H]4CCCN4)no3)CC2)c2sccc2n1 [Ref. example 10, (S)-3-(Pyrrolidin-2-ylmethoxy)-5-((4-(thieno[3,2-b]pyridin-7-yloxy)piperidin-1-yl)methyl)isoxazole trihydrochloride]",< 25
9,"O=S(=O)(c1ccccc1Cl)N1CCC(Oc2ncnc3ccsc23)CC1 [Ref. example 45, 4-((1-((2-chlorophenyl)sulfonyl)piperidin-4-yl)oxy)thieno[3,2-d]pyrimidine]",< 25
10,"Cc1cnn(C)c1S(=O)(=O)N1CCC(Oc2ncnc3ccsc23)CC1 [Ref. example 61, 4-((1-((1,4-dimethyl-1H-pyrazol-5-yl)sulfonyl)piperidin-4-yl)oxy)thieno[3,2-d]pyrimidine]",≥ 75
11,"Cc1nn(C)cc1CN1CCC(Oc2ccnc3ccsc23)CC1 [Ref. example 74, 7-((1-((1,3-dimethyl-1H-pyrazol-4-yl)methyl)piperidin-4-yl)oxy)thieno[3,2-b]pyridine]",50 to 75
12,"Cn1nccc1CN1CCC(Oc2ccnc3ccsc23)CC1 [Ref. example 77, 7-((1-((1-methyl-1H-pyrazol-5-yl)methyl)piperidin-4-yl)oxy)thieno[3,2-b]pyridine]",25 to 50
13,"Cc1cc2nccc(OC3CCN(C(C)c4cc(O)no4)CC3)c2s1 (stereo not drawn) [Ref. example 88, 5-(1-(4-((2-methylthieno[3,2-b]pyridin-7-yl)oxy)piperidin-1-yl)ethyl)isoxazol-3-ol]",25 to 50
14,"c1ccc(-c2cc3ncnc(NCC4CC4)c3s2)cc1 [Ref. example 14, N-(cyclopropylmethyl)-6-phenylthieno[3,2-d]pyrimidin-4-amine]",25 to 50
15,"O=S1(=O)CCC(Oc2ncnc3cc(I)sc23)CC1 [Ref. example 37, 4-((6-iodothieno[3,2-d]pyrimidin-4-yl)oxy)tetrahydro-2H-thiopyran 1,1-dioxide]",≥ 75
16,"C=CCn1oc(CN2CCC(Oc3ccnc4ccsc34)CC2)cc1=O [Ref. example 84, 2-allyl-5-((4-(thieno[3,2-b]pyridin-7-yloxy)piperidin-1-yl)methyl)isoxazol-3(2H)-one]",25 to 50
17,"C=CCOc1cc(C(C)N2CCC(Oc3ccnc4cc(C)sc34)CC2)on1 (racemic) [Ref. example 7, 3-(allyloxy)-5-(1-(4-((2-methylthieno[3,2-b]pyridin-7-yl)oxy)piperidin-1-yl)ethyl)isoxazole (racemate)]",< 25
18,"CC(C)(C)OC(=O)N1CCC(CS(=O)(=O)N2CCC(Oc3ncnc4ccsc34)CC2)CC1 [Ref. example 42, tert-butyl 4-(((4-(thieno[3,2-d]pyrimidin-4-yloxy)piperidin-1-yl)sulfonyl)methyl)piperidine-1-carboxylate]",50 to 75
19,"CC(C)CS(=O)(=O)N1CCC(Oc2ncnc3ccsc23)CC1 [Ref. example 62, 4-((1-(isobutylsulfonyl)piperidin-4-yl)oxy)thieno[3,2-d]pyrimidine]",25 to 50
20,"Cc1ncsc1-c1ccc(CNC(=O)[C@@H]2C[C@@H](O)CN2C(=O)[C@H](C(C)C)N2Cc3ccccc3C2=O)c(OCCOCCOCCOc2cc(CN3CCC(Oc4ccnc5ccsc45)CC3)on2)c1 [Example 62, (2S,4R)-4-hydroxy-1-((S)-3-methyl-2-(1-oxoisoindolin-2-yl)butanoyl)-N-(4-(4-methylthiazol-5-yl)-2-(2-(2-(2-((5-((4-(thieno[3,2-b]pyridin-7-yloxy)piperidin-1-yl)methyl)isoxazol-3-yl)oxy)ethoxy)ethoxy)ethoxy)benzyl)pyrrolidine-2-carboxamide]",50 to 75
21,"FC(F)(F)c1ncccc1Nc1ncnc2ccsc12 [Ref. example 24, N-(2-(trifluoromethyl)pyridin-3-yl)thieno[3,2-d]pyrimidin-4-amine]",50 to 75
22,"Cc1cc(Nc2ncnc3ccsc23)n(-c2ccccn2)n1 [Ref. example 25, N-(3-methyl-1-(pyridin-2-yl)-1H-pyrazol-5-yl)thieno[3,2-d]pyrimidin-4-amine]",25 to 50
23,"C#CCN1CCC(Oc2ccnc3ccsc23)CC1 [Ref. example 67, 7-((1-(prop-2-yn-1-yl)piperidin-4-yl)oxy)thieno[3,2-b]pyridine]",25 to 50
24,"c1nc(Nc2ccc3[nH]cnc3c2)c2sccc2n1 [Ref. example 26, N-(1H-benzo[d]imidazol-5-yl)thieno[3,2-d]pyrimidin-4-amine]",≥ 75
25,"C#Cc1cc2ncnc(OC3CCN(C)CC3)c2s1 [Ref. example 32, 6-ethynyl-4-((1-methylpiperidin-4-yl)oxy)thieno[3,2-d]pyrimidine]",≥ 75
26,"Cc1ccc(S(=O)(=O)N2CCC(Oc3ncnc4ccsc34)CC2)cc1 [Ref. example 55, 4-((1-(4-methylbenzenesulfonyl)piperidin-4-yl)oxy)thieno[3,2-d]pyrimidine]",25 to 50

# Same assay, conditions: second symbol of cell; read-out: IRAK-M binding inhibition IC50 value
row,Structure (SMILES),pIC50
1,"C=CCOc1cc(CN2CCC(Oc3ccnc4cc(C)sc34)CC2)on1 [Ref. example 72, 3-(allyloxy)-5-((4-((2-methylthieno[3,2-b]pyridin-7-yl)oxy)piperidin-1-yl)methyl)isoxazole]",7.00 to 7.52
2,"C=CCOc1cc(C(C)N2CCC(Oc3ccnc4ccsc34)CC2)on1 (single isomer, unassigned) [Ref. example 6, 3-(allyloxy)-5-(1-(4-(thieno[3,2-b]pyridin-7-yloxy)piperidin-1-yl)ethyl)isoxazole (enantiomer)]",6.52 to 7.00
3,"C#CCOc1cc(CN2CCC(Oc3ccnc4ccsc34)CC2)on1 [Ref. example 71, 3-(prop-2-yn-1-yloxy)-5-((4-(thieno[3,2-b]pyridin-7-yloxy)piperidin-1-yl)methyl)isoxazole]",7.00 to 7.52
4,"O=C1CCC(N2C(=O)c3cccc(OCCOCCOc4cc(CN5CCC(Oc6ccnc7ccsc67)CC5)on4)c3C2=O)C(=O)N1 (stereo not drawn) [Example 66, 2-(2,6-dioxopiperidin-3-yl)-4-(2-(2-((5-((4-(thieno[3,2-b]pyridin-7-yloxy)piperidin-1-yl)methyl)isoxazol-3-yl)oxy)ethoxy)ethoxy)isoindoline-1,3-dione]",6.52 to 7.00
5,"C=CCOc1cc(C(C)N2CCC(Oc3ccnc4ccsc34)CC2)on1 (single isomer, unassigned) [Ref. example 5, 3-(allyloxy)-5-(1-(4-(thieno[3,2-b]pyridin-7-yloxy)piperidin-1-yl)ethyl)isoxazole (enantiomer)]",7.00 to 7.52
6,"COCCOc1cc(CN2CCC(Oc3ccnc4ccsc34)CC2)on1 [Ref. example 85, 3-(2-methoxyethoxy)-5-((4-(thieno[3,2-b]pyridin-7-yloxy)piperidin-1-yl)methyl)isoxazole]",6.52 to 7.00
7,"O=C1CCC(N2C(=O)c3cccc(OCCOCCOCCOCCOc4cc(CN5CCC(Oc6ccnc7ccsc67)CC5)on4)c3C2=O)C(=O)N1 (stereo not drawn) [Example 67, 2-(2,6-dioxopiperidin-3-yl)-4-(2-(2-(2-(2-((5-((4-(thieno[3,2-b]pyridin-7-yloxy)piperidin-1-yl)methyl)isoxazol-3-yl)oxy)ethoxy)ethoxy)ethoxy)ethoxy)isoindoline-1,3-dione]",6.52 to 7.00
